From US20030162759A1, “Aldosterone blocker therapy to prevent or treat inflammation-related disorders” (priority 2000, published 2003)

Experiments:
[1] = test system: angiotensin II infused rats; experiment: Assay A angiotensin II infusion model: systolic blood pressure by tail-cuff; format: in vivo, rat; conditions: Wistar rats, 1% NaCl, angiotensin II 25 ng/min sc; eplerenone 100 mpk; 4 weeks
Method: Assay A: In Vivo Angiotensin II Infusion Model
Male Wistar rats (n—50, 10/group; BW=200 g)
2. Angiotensin 11 (25 ng/min, sc via aizet minipump)
SBP measured by tail-cuff every week

[2] = test system: angiotensin II infused rats; experiment: Assay A angiotensin II infusion model: heart histology (coronary vascular inflammation, myocardial injury); format: in vivo, rat; conditions: out of ten animals per group; angiotensin II/salt, 4 weeks; eplerenone 100 mpk

For “angiotensin II: angiotensin II, 25 ng/min sc via minipump, used to induce hypertension with vascular inflammation in rats (DRVYIHPF; Angiotensin-2; UniProt P01015 25-32, looked up) [reference compound]”, the Systolic Blood Pressure [1] was “Systolic blood pressure increased” and the “Animals with vascular inflammatory lesions in the coronary arteries” value [2] was “Seven out of the ten”.
